For this series, the target named is T1, human P450 11A1 (Homo sapiens, UniProt P05108).
T1 sequence (P05108 41-521 limits assumed): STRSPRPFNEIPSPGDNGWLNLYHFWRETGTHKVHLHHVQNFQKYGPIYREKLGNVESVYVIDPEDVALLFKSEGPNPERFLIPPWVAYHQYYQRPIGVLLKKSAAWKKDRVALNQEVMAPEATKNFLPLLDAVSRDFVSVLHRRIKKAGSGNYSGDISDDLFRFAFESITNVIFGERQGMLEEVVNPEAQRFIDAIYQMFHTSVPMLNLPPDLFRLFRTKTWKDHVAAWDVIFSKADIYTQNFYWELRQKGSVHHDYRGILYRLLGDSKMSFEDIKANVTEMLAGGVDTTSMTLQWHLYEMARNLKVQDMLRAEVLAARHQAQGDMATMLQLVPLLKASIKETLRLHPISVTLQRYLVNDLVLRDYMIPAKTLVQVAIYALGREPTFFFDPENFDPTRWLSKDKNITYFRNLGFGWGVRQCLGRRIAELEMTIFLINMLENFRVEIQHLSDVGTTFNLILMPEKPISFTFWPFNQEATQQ
T1 sequence (P00257 59-186 partner): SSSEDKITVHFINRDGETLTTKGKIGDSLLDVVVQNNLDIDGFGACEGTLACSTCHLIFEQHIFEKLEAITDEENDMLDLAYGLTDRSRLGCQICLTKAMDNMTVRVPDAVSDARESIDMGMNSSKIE
The experiment in a line: Fluorescence titration of Alexa 488-Adx with P450 11A1 ± cholesterol. Format: binding. The arrangement: M A S T R S P R P F N E I P S P G D N; Met-Ala (N-terminal start residues in place of the transit peptide and Ile40) (N); made in house; host or cells: E. coli (P450 11A1 in C41(DE3); Adx and AdR in E. coli). How it is done: Because Adx has been reported to stimulate the binding of P450 11A1 to its substrates ([12], [44]), we examined whether the binding of detergent-free P450 11A1 to Adx is enhanced by cholesterol, utilizing our fluorescently-labeled Adx construct (Alexa 488-Adx) ([45]). A 1:1 M complex of P450 11A1 and cholesterol was gradually titrated into a solution containing Alexa 488-Adx (50 nM), and the quenching of Adx fluorescence was monitored over the course of the reaction.
Figure 7 Effect of cholesterol on P450 11A1 binding to Adx.A, titration of P450 11A1 (0–400 nM) into Alexa 488-Adx (50 nM) gradually quenched the fluorophore and yielded a decrease in fluorescence output (between 500 and 600 nm). Spectra were collected after each addition of P450. B, normalized fluorescence (F/F0) of titrations of P450 11A1 with (▪, red) and without (•, black) cholesterol (equimolar). A 1:1 M complex of P450 and cholesterol was used as titrant, where indicated. […]
A previously described Alexa Fluor 488-labeled Adx construct and experimental protocol were used ([45]) to perform the fluorescence titration of P450 11A1 with Adx. […] P450 11A1 was gradually titrated (0–0.4 μM) into the cuvette (to a maximum of 2% (v/v)), and spectra were recorded using an OLIS DM-45 spectrofluorometer (1.24 mm slit width) with fluorophore excitation at 493 nm and scanning emission spectra from 500 to 600 nm. […]

Several values for one entry are separate records, joined by “and”; a condition that tells them apart may be missing. Identical values can stand only once.

For `CC(C)CCC[C@@H](C)[C@H]1CC[C@H]2[C@@H]3CC=C4C[C@@H](O)CC[C@]4(C)[C@H]3CC[C@]12C` [Cholesterol], the “stimulation of binding of P450 11A1 to Adx” value (equimolar cholesterol) is ~5 fold and ~4.5 fold. Besides, the “change in Gibbs free energy of Adx binding” value (from the 4.5-fold change in Kd) was under 1 kcal/mol.

The record behind these values is PMC10716780, “The multistep oxidation of cholesterol to pregnenolone by human cytochrome P450 11A1 is highly processive” (The Journal of Biological Chemistry, 2023).
